Patent publication US20110230481A2, “DERIVATIVES OF TETRABROMOBENZIMIDAZOLE, A PROCESS FOR THE PREPARATION THEREOF, A PHARMACEUTICAL COMPOSITION COMPRISING THE SAME, A METHOD OF USING THE SAME, A METHOD FOR MODULATING OR REGULATING SERINE/THREONINE KINASES, AND SERINE/THREONINE KINASES MODULATING AGENT” (SELVITA S.A., priority 2009, published 2011)

What was measured:
Assay in all cases: KINOMEscan Max
Format in all cases: binding
ERK8 = ERK8 (Homo sapiens, UniProt Q8TD08)
How it was run: (§1)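 DNA-tagged kinase + immobilized active-site directed ligand + test compound combined; ligand-bound kinase quantified by qPCR of tag. Competition binding format.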

PIP5K1C = PIP5K1C (Homo sapiens, UniProt O60331); conditions: 1 μM
How it was run: as §1

SRMS = target: T1, SRMS (Homo sapiens, UniProt Q9H3Y6)
T1 construct: DNA tag (qPCR read-out)
T1 sequence (Q9H3Y6 whole entry): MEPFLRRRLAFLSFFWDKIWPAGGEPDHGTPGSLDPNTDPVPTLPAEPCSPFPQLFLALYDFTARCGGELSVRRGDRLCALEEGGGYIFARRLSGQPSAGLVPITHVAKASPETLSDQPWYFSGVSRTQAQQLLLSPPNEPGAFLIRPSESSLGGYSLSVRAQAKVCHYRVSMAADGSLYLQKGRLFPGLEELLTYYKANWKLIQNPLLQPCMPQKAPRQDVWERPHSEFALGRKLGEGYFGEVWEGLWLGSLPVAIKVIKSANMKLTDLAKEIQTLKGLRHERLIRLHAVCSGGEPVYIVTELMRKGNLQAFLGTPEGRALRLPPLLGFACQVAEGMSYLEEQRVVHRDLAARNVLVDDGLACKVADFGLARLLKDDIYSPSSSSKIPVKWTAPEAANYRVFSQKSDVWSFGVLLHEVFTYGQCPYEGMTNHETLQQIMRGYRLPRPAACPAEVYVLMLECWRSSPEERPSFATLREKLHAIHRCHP
How it was run: as §1

LZK = target: T2, LZK (Homo sapiens, UniProt O43283); conditions: 1 μM
T2 construct: purchased Ambit Kinomescan (contract panel)
How it was run: as §1

CSNK1E = target: T3, CSNK1E (Homo sapiens, UniProt P49674)
T3 construct: DNA tag (qPCR read-out)
T3 sequence (P49674 whole entry): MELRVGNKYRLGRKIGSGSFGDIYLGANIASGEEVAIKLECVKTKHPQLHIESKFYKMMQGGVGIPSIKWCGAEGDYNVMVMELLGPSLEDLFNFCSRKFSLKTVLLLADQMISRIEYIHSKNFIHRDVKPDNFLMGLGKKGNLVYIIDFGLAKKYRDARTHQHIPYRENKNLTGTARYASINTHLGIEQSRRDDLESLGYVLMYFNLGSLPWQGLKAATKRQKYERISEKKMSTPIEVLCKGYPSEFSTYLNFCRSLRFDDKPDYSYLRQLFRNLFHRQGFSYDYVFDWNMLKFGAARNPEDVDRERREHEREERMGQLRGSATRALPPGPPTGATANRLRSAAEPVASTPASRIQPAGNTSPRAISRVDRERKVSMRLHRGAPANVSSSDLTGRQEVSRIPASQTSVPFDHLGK
How it was run: as §1

TIE1 = target: T4, TIE1 (Homo sapiens, UniProt P35590)
T4 construct: purchased Ambit Kinomescan (contract screening service)
How it was run: as §1

CDK4-cyclinD3 = CDK4-cyclinD3 (Homo sapiens, UniProt P11802)
How it was run: as §1

STK33 = STK33 (Homo sapiens, UniProt Q9BYT3)
How it was run: as §1

[1] = target: T5, RPS6KA5(Kin.Dom.2-C-terminal) (Homo sapiens, UniProt O75582)
T5 construct: RPS6KA5(Kin.Dom.2-C-terminal); DNA tag (qPCR read-out)
How it was run: as §1

PDGFRB = PDGFRB (Homo sapiens, UniProt P09619)
PDGFRB, sequence (P09619 33-1106): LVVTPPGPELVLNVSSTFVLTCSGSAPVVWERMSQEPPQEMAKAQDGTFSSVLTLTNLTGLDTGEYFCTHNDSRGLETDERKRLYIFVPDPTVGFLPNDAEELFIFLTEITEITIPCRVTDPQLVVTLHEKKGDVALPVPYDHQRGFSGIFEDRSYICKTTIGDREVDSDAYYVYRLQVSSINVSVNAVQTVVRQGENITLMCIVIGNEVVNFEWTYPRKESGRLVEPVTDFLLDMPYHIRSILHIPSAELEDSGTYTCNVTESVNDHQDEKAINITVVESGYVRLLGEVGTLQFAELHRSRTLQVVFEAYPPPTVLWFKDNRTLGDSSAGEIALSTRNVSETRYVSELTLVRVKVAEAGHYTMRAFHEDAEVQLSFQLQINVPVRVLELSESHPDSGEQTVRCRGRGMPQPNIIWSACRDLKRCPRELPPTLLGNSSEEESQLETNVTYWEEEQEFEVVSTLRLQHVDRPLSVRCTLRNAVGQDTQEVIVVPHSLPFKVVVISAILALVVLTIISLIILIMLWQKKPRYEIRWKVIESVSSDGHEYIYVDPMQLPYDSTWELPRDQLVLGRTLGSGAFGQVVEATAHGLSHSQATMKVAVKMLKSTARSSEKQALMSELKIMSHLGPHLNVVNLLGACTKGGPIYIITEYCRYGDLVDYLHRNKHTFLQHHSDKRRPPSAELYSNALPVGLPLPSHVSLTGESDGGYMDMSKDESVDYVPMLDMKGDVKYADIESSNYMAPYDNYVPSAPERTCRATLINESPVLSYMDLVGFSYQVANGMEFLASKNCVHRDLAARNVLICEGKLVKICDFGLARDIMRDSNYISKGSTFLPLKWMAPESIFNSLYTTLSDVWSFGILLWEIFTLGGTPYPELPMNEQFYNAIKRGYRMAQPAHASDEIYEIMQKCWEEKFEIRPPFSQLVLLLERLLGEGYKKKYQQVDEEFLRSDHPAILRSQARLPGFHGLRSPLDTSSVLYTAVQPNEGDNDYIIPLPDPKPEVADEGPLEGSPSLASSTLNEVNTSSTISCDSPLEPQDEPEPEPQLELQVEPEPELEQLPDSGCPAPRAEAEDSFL
How it was run: as §1

BRK = target: T6, BRK (Homo sapiens, UniProt Q13882)
T6 construct: DNA tag (qPCR label); purchased Ambit Kinomescan (contract screening)
How it was run: as §1

KIT(V559D) = target: T7, KIT(V559D) (Homo sapiens, UniProt P10721, V559D)
T7 construct: purchased Ambit Kinomescan (contract screening)
T7 sequence (P10721 26-976 V559D): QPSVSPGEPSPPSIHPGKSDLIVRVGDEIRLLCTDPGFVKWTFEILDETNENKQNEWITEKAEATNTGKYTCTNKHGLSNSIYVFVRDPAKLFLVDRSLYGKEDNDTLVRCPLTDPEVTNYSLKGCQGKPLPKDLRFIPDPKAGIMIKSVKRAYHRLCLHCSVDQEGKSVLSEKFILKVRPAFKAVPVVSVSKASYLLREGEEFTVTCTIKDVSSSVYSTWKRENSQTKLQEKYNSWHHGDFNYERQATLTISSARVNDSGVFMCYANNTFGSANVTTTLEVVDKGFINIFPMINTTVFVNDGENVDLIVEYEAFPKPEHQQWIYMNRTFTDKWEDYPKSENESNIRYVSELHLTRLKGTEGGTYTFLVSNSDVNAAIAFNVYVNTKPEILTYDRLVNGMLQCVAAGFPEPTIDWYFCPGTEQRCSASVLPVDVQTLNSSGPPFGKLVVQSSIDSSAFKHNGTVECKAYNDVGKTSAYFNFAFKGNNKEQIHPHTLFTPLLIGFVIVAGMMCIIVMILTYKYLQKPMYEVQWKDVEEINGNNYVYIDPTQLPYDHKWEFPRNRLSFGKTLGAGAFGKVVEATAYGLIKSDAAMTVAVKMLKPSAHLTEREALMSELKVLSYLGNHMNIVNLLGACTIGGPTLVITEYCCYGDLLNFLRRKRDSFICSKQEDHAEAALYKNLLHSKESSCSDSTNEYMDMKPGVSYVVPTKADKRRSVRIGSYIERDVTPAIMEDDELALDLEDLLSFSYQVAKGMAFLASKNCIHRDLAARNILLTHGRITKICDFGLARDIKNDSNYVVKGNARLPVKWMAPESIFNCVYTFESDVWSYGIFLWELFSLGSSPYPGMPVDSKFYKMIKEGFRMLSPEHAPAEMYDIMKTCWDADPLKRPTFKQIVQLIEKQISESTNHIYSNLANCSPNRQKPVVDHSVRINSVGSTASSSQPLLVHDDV
How it was run: as §1

NDR2 = NDR2 (Homo sapiens, UniProt Q9Y2H1)
How it was run: as §1

CDK4-cyclinD1 = target: T8, CDK4-cyclinD1 (Homo sapiens, UniProt P11802)
T8 construct: DNA tag (qPCR label); purchased Ambit Kinomescan (contract screening)
How it was run: as §1

[2] = target: T9, RSK1(Kin.Dom.2-C-terminal) (Homo sapiens, UniProt Q15418)
T9 construct: RSK1(Kin.Dom.2-C-terminal); purchased Ambit Kinomescan (contract screening)
How it was run: as §1

CTK = CTK (Homo sapiens, UniProt P42679)
How it was run: as §1

STK39 = target: T10, STK39 (Homo sapiens, UniProt Q9UEW8)
T10 construct: DNA tag (qPCR read-out)
How it was run: as §1

SgK110 = target: T11, SgK110 (Homo sapiens, UniProt P0C264)
T11 construct: DNA tag (qPCR read-out)
How it was run: as §1

ACVR1B = ACVR1B (Homo sapiens, UniProt P36896)
ACVR1B, sequence (P36896 24-505): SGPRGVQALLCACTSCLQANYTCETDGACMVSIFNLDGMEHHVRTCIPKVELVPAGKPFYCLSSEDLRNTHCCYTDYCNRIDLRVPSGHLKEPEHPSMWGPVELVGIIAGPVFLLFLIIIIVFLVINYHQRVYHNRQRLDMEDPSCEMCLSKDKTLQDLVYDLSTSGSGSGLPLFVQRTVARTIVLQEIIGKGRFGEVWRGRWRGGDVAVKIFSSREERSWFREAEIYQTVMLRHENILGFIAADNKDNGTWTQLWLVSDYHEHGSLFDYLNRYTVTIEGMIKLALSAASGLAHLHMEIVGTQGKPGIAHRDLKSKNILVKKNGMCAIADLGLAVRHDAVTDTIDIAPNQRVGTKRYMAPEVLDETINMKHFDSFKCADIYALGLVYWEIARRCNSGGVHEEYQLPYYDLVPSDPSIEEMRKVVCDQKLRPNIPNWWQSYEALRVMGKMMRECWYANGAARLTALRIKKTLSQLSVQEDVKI
How it was run: as §1

AURKC = target: T12, AURKC (Homo sapiens, UniProt Q9UQB9)
T12 construct: purchased Ambit (KINOMEscan Max service)
How it was run: as §1

MYO3B = MYO3B (Homo sapiens, UniProt Q8WXR4)
How it was run: as §1

IKK-epsilon = target: T13, IKK-epsilon (Homo sapiens, UniProt Q14164)
T13 construct: purchased Ambit Kinomescan (contract panel, KINOMEscan Max)
How it was run: as §1

CIT = CIT (Homo sapiens, UniProt O14578); conditions: 1 μM
How it was run: as §1

FLT1 = target: T14, FLT1 (Homo sapiens, UniProt P17948)
T14 construct: purchased Ambit Kinomescan (contract panel, KINOMEscan Max)
How it was run: as §1

MARK3 = target: T15, MARK3 (Homo sapiens, UniProt P27448)
T15 construct: purchased Ambit Kinomescan (contract panel)
How it was run: as §1

LKB1 = target: T16, LKB1 (Homo sapiens, UniProt Q15831)
T16 construct: purchased Ambit Kinomescan (contract screening)
How it was run: as §1

KIT(L576P) = target: T17, KIT(L576P) (Homo sapiens, UniProt P10721, L576P)
T17 construct: purchased Ambit (KINOMEscan Max service)
T17 sequence (P10721 26-976 L576P): as the sequence (P10721 26-976 V559D) above, with D534V, L551P counted along it
How it was run: as §1

MST2 = MST2 (Homo sapiens, UniProt Q13188)
MST2, sequence (Q13188 whole entry): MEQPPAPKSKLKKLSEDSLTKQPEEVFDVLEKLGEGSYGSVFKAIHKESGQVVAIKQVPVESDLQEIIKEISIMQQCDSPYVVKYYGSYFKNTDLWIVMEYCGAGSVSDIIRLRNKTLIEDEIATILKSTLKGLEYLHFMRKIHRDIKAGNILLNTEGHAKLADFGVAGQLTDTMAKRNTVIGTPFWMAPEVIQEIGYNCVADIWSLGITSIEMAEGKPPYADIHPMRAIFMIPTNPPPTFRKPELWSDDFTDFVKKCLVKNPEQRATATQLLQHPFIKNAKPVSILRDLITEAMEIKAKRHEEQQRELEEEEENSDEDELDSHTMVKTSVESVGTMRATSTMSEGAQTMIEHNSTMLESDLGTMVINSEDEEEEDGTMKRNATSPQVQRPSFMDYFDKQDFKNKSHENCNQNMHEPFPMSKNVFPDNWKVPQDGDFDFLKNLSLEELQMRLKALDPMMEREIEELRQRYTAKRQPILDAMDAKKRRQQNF
How it was run: as §1

MLK1 = MLK1 (Homo sapiens, UniProt P80192)
How it was run: as §1

PRKCQ = PRKCQ (Homo sapiens, UniProt Q04759)
How it was run: as §1

MAP4K4 = target: T18, MAP4K4 (Homo sapiens, UniProt O95819)
T18 construct: purchased Ambit Kinomescan (contract screening)
How it was run: as §1

PIK3CA(H1047L) = target: T19, PIK3CA(H1047L) (Homo sapiens, UniProt P42336, H1047L)
T19 construct: DNA tag (qPCR read-out)
T19 sequence (P42336 whole entry H1047L): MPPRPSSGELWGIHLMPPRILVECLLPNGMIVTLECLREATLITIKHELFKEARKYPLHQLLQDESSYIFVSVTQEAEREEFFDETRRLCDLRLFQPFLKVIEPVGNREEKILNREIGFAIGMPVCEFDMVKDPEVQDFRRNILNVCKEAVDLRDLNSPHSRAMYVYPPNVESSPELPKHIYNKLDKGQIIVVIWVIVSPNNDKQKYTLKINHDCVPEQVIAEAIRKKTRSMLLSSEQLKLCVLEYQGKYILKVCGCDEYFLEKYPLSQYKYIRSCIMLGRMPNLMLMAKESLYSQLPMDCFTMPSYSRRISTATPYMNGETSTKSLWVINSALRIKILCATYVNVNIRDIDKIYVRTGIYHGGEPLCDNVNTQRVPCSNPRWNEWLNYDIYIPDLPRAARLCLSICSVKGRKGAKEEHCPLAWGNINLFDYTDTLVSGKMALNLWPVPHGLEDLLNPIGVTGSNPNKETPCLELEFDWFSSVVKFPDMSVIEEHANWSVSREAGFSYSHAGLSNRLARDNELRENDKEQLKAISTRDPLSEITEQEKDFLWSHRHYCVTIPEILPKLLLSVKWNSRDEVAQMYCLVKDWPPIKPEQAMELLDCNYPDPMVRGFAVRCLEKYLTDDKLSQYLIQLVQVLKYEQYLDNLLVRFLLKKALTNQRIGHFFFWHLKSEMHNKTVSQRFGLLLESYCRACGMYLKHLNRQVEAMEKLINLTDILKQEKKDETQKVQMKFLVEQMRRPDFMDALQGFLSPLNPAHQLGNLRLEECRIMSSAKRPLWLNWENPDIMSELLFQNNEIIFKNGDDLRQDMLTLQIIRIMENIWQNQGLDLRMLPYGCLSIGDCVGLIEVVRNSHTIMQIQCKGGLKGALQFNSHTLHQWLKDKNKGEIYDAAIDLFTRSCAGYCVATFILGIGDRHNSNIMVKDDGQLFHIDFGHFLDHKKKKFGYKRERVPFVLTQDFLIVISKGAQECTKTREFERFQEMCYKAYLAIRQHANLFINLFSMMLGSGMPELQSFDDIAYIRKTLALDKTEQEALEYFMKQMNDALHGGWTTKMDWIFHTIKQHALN
How it was run: as §1

EPHB6 = EPHB6 (Homo sapiens, UniProt O15197)
How it was run: as §1

FER = target: T20, FER (Homo sapiens, UniProt P16591)
T20 construct: purchased Ambit Kinomescan (contract panel, KINOMEscan Max)
How it was run: as §1

## NCCCNc1nc2c(Br)c(Br)c(Br)c(Br)c2[nH]1 [Compound 11, N-(3-aminopropyl)-4,5,6,7-tetrabromo-1H-benzo[d]imidazol-2-amine]
ERK8
  remaining binding at 1 µM: 72%
PIP5K1C
  % binding: 95%
SRMS
  remaining binding at 1 µM: 100%
LZK
  % binding: 100%
CSNK1E
  remaining binding at 1 µM: 34%
TIE1
  remaining binding at 1 µM: 100%
CDK4-cyclinD3
  remaining binding at 1 µM: 92%
STK33
  remaining binding at 1 µM: 77%
[1]
  remaining binding at 1 µM: 100%
PDGFRB
  remaining binding at 1 µM: 80%
BRK
  remaining binding at 1 µM: 100%
KIT(V559D)
  remaining binding at 1 µM: 97%
NDR2
  remaining binding at 1 µM: 100%
CDK4-cyclinD1
  remaining binding at 1 µM: 100%
[2]
  remaining binding at 1 µM: 96%
CTK
  remaining binding at 1 µM: 74%
STK39
  remaining binding at 1 µM: 100%
SgK110
  remaining binding at 1 µM: 100%
ACVR1B
  remaining binding at 1 µM: 100%
AURKC
  remaining binding at 1 µM: 83%
MYO3B
  remaining binding at 1 µM: 100%
IKK-epsilon
  remaining binding at 1 µM: 100%
CIT
  % binding: 93%
FLT1
  remaining binding at 1 µM: 100%
MARK3
  remaining binding at 1 µM: 100%
LKB1
  remaining binding at 1 µM: 96%
KIT(L576P)
  remaining binding at 1 µM: 83%
MST2
  remaining binding at 1 µM: 100%
MLK1
  remaining binding at 1 µM: 100%
PRKCQ
  remaining binding at 1 µM: 77%
MAP4K4
  remaining binding at 1 µM: 98%
PIK3CA(H1047L)
  remaining binding at 1 µM: 100%
EPHB6
  remaining binding at 1 µM: 95%
FER
  remaining binding at 1 µM: 100%
